In patent publication US6229016A, “Method for treating tumors using 2-aryl-naphthyridin-4-ones” (priority 2000, dated 2001):
Each block holds one compound with its values, some of them ahead of it.

Experiments:
tubulin [1] = experiment: Colchicine binding assay; design: species or system bovine; settings: for ICB (% Inhibition) (inhibition of colchicine binding): evaluated only when polymerization IC50 ≤ 1 μM, 5.0 μM inhibitor, 5.0 μM [3H]colchicine, 1.0 μM tubulin
Procedure: Electrophoretically homogeneous bovine brain tubulin was purified as described in E. Hamel, et al. Biochemistry 23:4173 (1984). Combretastatin A-4 was a generous gift of Dr. G. R Pettit, Arizona State University.
Incubation was for 20 min at 37° C. Each reaction mixture was filtered under reduced vacuum through a stack of two DEAE-cellulose paper filters, washed with water, and radioactivity quantitated in a liquid scintillation counter.
[…]. with 36' vs. 33'-35', and with 46' vs. 43'-45').

tubulin [2] = experiment: Tubulin polymerization assay; format: biochemical, bovine; settings: earlier finding, background section; read-out: IC50, inhibitor of tubulin polymerization
Procedure: Electrophoretically homogeneous bovine brain tubulin was purified as described in E. Hamel, et al. Biochemistry 23:4173 (1984).
The tubulin polymerization assay was performed as described in S. Kuo, et al. J. Med. Chem. 36:1146 (1993); L. Li, et al. J. Med. Chem. 37:1126 (1994); and L. Li J. Med. Chem. 37:3400 (1994). In brief, tubulin at 1.2 mg/ml (12 μM) was preincubated for 15 min at 26° C. in a 0.24-ml volume of 0.8 M monosodium glutamate (pH 6.6 with NaOH in a 2 M stock solution) with varying drug concentrations. The drug stock solutions were in DMSO, and the final solvent concentration was 4 % (v/v). All concentrations are in terms of the final reaction volume (0.25 ml). The reaction mixtures were chilled on ice, and 10 μl of 10 mM GTP was added to each reaction mixture. Samples were transferred to cuvettes held at 0° C. by an electronic temperature controller in Gilford spectrophotometers. Baselines were established at 350 nm, and polymerization initiated by a temperature jump to 26° C. The jump took about 50 sec to complete. After 20 min, turbidity readings were recorded, and the temperature controller was set to 0C. When depolymerization was complete, turbidity readings were again recorded. […] IC50 values were obtained graphically from inhibition of polymerization by different drug concentrations.
Electrophoretically, homogeneous bovine brain tubulin was purified as described in Example 6.
The tubulin polymerization assay was performed as described in Example 6.

[3] = system: central nervous system, lung, ovarian, colon, and renal cancers and melanoma and leukemia cell lines; experiment: Cytotoxicity of isolated flavonol in panels of tumor cell lines; format: cell-based; settings: in vitro
Excerpt: In the course of this groups search for novel plant-derived potent cytotoxic agents that are active against slow-growing solid tumors, we have isolated several flavonols as antitumor principles from a phytochemically and biologically heretofore uninvestigated plant, Polanisia dodecandra. […]

[4] = system: PC-3 prostate cancer cell line; experiment: NCI in vitro screen, prostate cancer PC-3; format: cell-based; settings: Homo sapiens, read-out: Cytotoxicity log GI50 (converted)
[5] = system: NCI's 60 human tumor cell line; experiment: NCI 60 human tumor cell line in vitro screen (average / whole panel); format: cell-based; settings: calculated from all cell lines tested, molar concentrations, read-out: average log GI50 (converted)
[6] = system: HL-60(TB) leukemia cell line; experiment: cells; format: cell-based; settings: Homo sapiens
[7] = system: SK-MEL-5 melanoma cell line; experiment: NCI in vitro screen, melanoma SK-MEL-5; format: cell-based; settings: Homo sapiens, read-out: Cytotoxicity log GI50 (converted)
[8] = system: U-251 CNS cancer cell line; experiment: NCI in vitro screen, CNS cancer U-251; format: cell-based; settings: Homo sapiens, read-out: Cytotoxicity log GI50 (converted)
[9] = system: SF-295 CNS cancer cell line; experiment: NCI in vitro screen, CNS cancer SF-295; format: cell-based; settings: Homo sapiens, read-out: Cytotoxicity log GI50 (converted)
[10] = system: MDA-MB-435 breast cancer cell line; experiment: NCI in vitro screen, breast cancer MDA-MB-435; format: cell-based; settings: Homo sapiens
NCI-H226 cell line = experiment: NCI in vitro screen, NCI-H226; format: cell-based; settings: Homo sapiens, range over four compounds, read-out: log TGI
Excerpt: Compounds 41-51 and 53-68 were submitted to NCI and assayed in the NCI's in vitro disease-oriented antitumor screen, which involves determination of a test compound's effects on the growth of approximately 60 human tumor cell lines. See, M. R. Boyd, et al. In Cancer: Principles and Practice of Oncology Updates; De Vita, V. T., Hellman, S., Rosenberg, S. A., Eds; J. B. Lippincoft: Philadelphia, pp 1-12 (1989); and A. Monks, et al. J. Natl. Cancer Inst. 83:757 (1991). These lines include leukemia, non-small cell lung, colon, central nervous system (CNS), melanoma, ovarian, renal, prostate, and breast cancers.

[11] = system: 786-0 renal cancer cell line; experiment: NCI in vitro screen, renal cancer 786-0; format: cell-based; settings: Homo sapiens, read-out: Cytotoxicity log GI50 (converted)
[12] = system: OVCAR-3 ovarian cancer cell line; experiment: NCI in vitro screen, ovarian cancer OVCAR-3; format: cell-based; settings: Homo sapiens, read-out: Cytotoxicity log GI50 (converted)
[13] = system: MDA-N breast cancer cell line; experiment: NCI in vitro screen, breast cancer MDA-N; format: cell-based; settings: Homo sapiens
[14] = system: HCT-116 colon cancer cell line; experiment: NCI in vitro screen, colon cancer HCT-116; format: cell-based; settings: Homo sapiens; HCT-1.16 (head); HCT-116 (footnote); read-out: Cytotoxicity log GI50 (converted)
[15] = system: NCI-H460 non-small cell lung cancer cell line; experiment: NCI in vitro screen, non-small cell lung cancer NCI-H460; format: cell-based; settings: Homo sapiens, read-out: Cytotoxicity log GI50 (converted)
[16] = range over four compounds and two cell lines, read-out: log TGI
[17] = read-out: Cytotoxicity log GI50 (converted)

- inhibition of radiolabeled colchicine binding to tubulin (tubulin [1]; equimolar concentration with colchicine, background section): 59%
- IC50 (tubulin [2]): 830 ± 200 nM
SMILES: COc1ccc(-c2oc3c(OC)c(OC)c(OC)c(O)c3c(=O)c2OC)cc1O [5,3'-dihydroxy-3,6,7,8,4'-pentamethoxyflavone]
- GI50 values [3]: low micromolar to nanomolar concentration range

SMILES: COc1cccc(-c2cc(=O)c3cc(Cl)cnc3[nH]2)c1 [Compound 49]
- GI50 [4]: 138 nM
- GI50 [5]: 97.7 nM
- IC (TGI) ([6]; HL-60, H-60 cell line, range over four compounds, read-out: log TGI): 39.8 to 64.6 nM
- GI50 ([6]; HL-60(TB), read-out: Cytotoxicity log GI50 (converted)): 26.9 nM
- GI50 [7]: 126 nM
- GI50 [8]: 200 nM
- GI50 [9]: 60.3 nM
- IC (TGI) [10, 16]: 21.4 to 39.8 nM
- GI50 [10, 17]: 32.4 nM
- IC (TGI) (NCI-H226 cell line): 75.9 to 692 nM
- GI50 [11]: 427 nM
- GI50 [12]: 490 nM
- IC (TGI) [13, 16]: 21.4 to 39.8 nM
- GI50 [13, 17]: 31.6 nM
- GI50 [14]: 120 nM
- GI50 [15]: 63.1 nM

SMILES: COc1ccc(/C=C\c2cc(OC)c(OC)c(OC)c2)cc1O [combretastatin A-4, Combretastatin A-4]
- ICB (% Inhibition) (inhibition of colchicine binding) (tubulin [1]): 91 ± 2%

SMILES: COc1cc([C@@H]2c3cc4c(cc3[C@H](O)[C@H]3COC(=O)[C@H]23)OCO4)cc(OC)c1OC [podophyllotoxin, reference compound]
- ICB (% Inhibition) (inhibition of colchicine binding) (tubulin [1]): 76 ± 5%
